The source made the active and inactive calls. The rule behind the calls is not given here.
Assays:
Toledo = assay: Cytotoxicity against human Toledo cells measured after 8 days; format: functional, cell-based; details: 192 h
REH = assay: Cytotoxicity against human REH cells measured after 8 days; format: functional, cell-based; details: 192 h
PC-9 = assay: Antiproliferative activity against human PC-9 cells assessed as reduction in colony formation upto 20 uM supplemented with fresh medium containing compound every 3 days for 9 days by MTT staining based clonogenic assay; format: functional, cell-based; details: time 9.0 day
HPAC = assay: Antiproliferative activity against HPAC assessed as reduction in colony formation upto 20 uM supplemented with fresh medium containing compound every 3 days for 9 days by MTT staining based clonogenic assay; format: functional, cell-based; details: Homo sapiens, time 9.0 day
MCF7 = assay: Antiproliferative activity against human MCF7 cells assessed as reduction in colony formation up to 20 uM supplemented with fresh medium containing compound every 3 days for 9 days by MTT staining based clonogenic assay; format: functional, cell-based; details: time 9.0 day
HL-60 = assay: Cytotoxicity against human HL-60 cells measured after 8 days; format: functional, cell-based; details: HL-60, 192 h
Pfeiffer = assay: Cytotoxicity against human Pfeiffer cells measured after 8 days; format: functional, cell-based; details: 192 h
GABA-B receptor = GABA-B receptor (Homo sapiens, UniProt O75899+Q9UBS5); assay: Inhibition of human GABA-B receptor at 10 uM relative to control; format: protein-complex assay
Chain of GABA-B receptor (Q9UBS5 whole entry): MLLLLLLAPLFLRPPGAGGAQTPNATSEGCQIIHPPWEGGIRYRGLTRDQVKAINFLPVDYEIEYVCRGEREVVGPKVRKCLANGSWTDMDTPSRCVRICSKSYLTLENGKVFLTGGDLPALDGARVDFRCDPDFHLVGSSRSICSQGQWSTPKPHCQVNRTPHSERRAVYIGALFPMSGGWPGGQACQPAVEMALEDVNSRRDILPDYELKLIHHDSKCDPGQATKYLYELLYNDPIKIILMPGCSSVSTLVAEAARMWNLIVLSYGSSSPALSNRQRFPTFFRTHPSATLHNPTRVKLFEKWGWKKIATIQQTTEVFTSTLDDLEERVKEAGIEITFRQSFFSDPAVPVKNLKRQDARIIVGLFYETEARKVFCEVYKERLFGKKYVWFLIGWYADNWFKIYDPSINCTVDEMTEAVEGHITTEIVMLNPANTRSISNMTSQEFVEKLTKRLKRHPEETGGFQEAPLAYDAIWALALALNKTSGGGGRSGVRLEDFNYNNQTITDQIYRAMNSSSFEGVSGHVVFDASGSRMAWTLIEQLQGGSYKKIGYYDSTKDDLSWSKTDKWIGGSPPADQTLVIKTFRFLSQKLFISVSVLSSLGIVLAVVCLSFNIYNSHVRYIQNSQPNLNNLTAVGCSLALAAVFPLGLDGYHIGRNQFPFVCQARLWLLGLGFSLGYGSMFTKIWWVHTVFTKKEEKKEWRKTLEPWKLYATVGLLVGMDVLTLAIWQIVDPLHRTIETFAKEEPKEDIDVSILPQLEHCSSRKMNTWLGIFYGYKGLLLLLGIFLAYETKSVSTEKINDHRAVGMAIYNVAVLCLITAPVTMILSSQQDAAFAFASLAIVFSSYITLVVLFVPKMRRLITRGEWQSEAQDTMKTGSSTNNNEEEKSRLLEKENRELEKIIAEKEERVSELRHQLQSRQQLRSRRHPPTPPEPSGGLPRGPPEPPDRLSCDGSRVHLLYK
Chain of GABA-B receptor (O75899 whole entry): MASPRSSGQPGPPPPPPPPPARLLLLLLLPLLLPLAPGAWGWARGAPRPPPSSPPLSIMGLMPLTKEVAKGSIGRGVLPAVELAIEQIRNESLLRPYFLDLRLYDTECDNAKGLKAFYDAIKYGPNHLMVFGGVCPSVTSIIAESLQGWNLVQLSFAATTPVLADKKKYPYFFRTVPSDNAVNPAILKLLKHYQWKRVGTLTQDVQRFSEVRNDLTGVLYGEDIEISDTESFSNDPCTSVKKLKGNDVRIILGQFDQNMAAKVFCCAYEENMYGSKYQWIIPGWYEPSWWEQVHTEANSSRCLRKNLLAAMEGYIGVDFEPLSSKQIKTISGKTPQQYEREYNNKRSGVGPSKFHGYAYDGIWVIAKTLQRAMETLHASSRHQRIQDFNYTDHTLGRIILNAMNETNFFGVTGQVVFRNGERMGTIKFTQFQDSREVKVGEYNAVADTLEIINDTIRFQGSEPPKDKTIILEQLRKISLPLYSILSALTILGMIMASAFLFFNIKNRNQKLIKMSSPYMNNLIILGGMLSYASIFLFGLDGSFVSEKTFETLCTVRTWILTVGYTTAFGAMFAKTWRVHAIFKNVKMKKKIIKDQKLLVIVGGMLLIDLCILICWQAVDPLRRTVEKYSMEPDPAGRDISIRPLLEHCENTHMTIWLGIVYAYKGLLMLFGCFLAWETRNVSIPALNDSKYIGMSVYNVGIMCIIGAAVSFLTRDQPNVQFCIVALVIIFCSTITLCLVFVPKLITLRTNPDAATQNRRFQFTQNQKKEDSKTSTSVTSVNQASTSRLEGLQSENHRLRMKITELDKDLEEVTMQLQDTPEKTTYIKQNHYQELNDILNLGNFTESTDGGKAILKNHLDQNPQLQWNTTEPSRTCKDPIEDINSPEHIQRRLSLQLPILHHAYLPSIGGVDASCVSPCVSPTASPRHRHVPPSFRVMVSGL

PLC-PRF-5 = assay: Cytotoxicity against human PLC-PRF-5 cells measured after 3 days; format: functional, cell-based; details: PLC-PRF-5, 72 h
OCI-AML-3 = assay: Cytotoxicity against human OCI-AML-3 cells measured after 3 days; format: functional, cell-based; details: OCI-AML-3, 72 h
[1] = Cytotoxicity against human JHH7 cells measured after 3 days; format: functional, cell-based; details: JHH7, 72 h
[2] = Cytotoxicity against human NCE-G 141 cells measured after 3 days; format: functional, cell-based; details: NCE-G 141, 72 h
EFO-27 = assay: Cytotoxicity against human EFO-27 cells measured after 3 days; format: functional, cell-based; details: EFO-27, 72 h
CA46 = assay: Cytotoxicity against human CA46 cells measured after 3 days; format: functional, cell-based; details: CA46, 72 h
DOV13 = assay: Cytotoxicity against human DOV13 cells measured after 3 days; format: functional, cell-based; details: DOV13, 72 h
[3] = Cytotoxicity against human NCE-G 22 cells measured after 3 days; format: functional, cell-based; details: NCE-G 22, 72 h
SU-DHL-6 = assay: Cytotoxicity against human SU-DHL-6 cells measured after 3 days; format: functional, cell-based; details: SU-DHL-6, 72 h
Ramos = assay: Cytotoxicity against human Ramos cells measured after 3 days; format: functional, cell-based; details: 72 h
BT-20 = assay: Cytotoxicity against human BT-20 cells measured after 3 days; format: functional, cell-based; details: BT-20, 72 h
CAL-85-1 = assay: Cytotoxicity against human CAL-85-1 cells measured after 3 days; format: functional, cell-based; details: CAL-85-1, 72 h
SNU-423 = assay: Cytotoxicity against human SNU-423 cells measured after 3 days; format: functional, cell-based; details: SNU-423, 72 h
SU-DHL-16 = assay: Cytotoxicity against human SU-DHL-16 cells measured after 3 days; format: functional, cell-based; details: SU-DHL-16, 72 h
[4] = Cytotoxicity against human NCE-G 120 cells measured after 3 days; format: functional, cell-based; details: NCE-G 120, 72 h
HCC2935 = assay: Cytotoxicity against human HCC2935 cells after 8 days; format: functional, cell-based; details: HCC2935, 192 h
[5] = Cytotoxicity against human LUDLU-1 cells measured after 3 days; format: functional, cell-based; details: LUDLU-1, 72 h
[6] = Cytotoxicity against human NCE-G 140 cells measured after 3 days; format: functional, cell-based; details: NCE-G 140, 72 h
[7] = Cytotoxicity against human RMUG-S cells measured after 3 days; format: functional, cell-based; details: 72 h
[8] = Cytotoxicity against human HuH-1 cells measured after 3 days; format: functional, cell-based; details: HuH-1, 72 h
[9] = Cytotoxicity against human NCE-G 61 cells measured after 3 days; format: functional, cell-based; details: NCE-G 61, 72 h
[10] = Cytotoxicity against human NCE-G 118 cells measured after 3 days; format: functional, cell-based; details: NCE-G 118, 72 h
Hep 3B2 = assay: Cytotoxicity against human Hep 3B2.1-7 cells measured after 3 days; format: functional, cell-based; details: Hep3B, 72 h
KARPAS-422 = assay: Cytotoxicity against human KARPAS-422 cells measured after 3 days; format: functional, cell-based; details: KARPAS-422, 72 h
OCI-LY19 = assay: Cytotoxicity against human OCILY19 cells measured after 3 days; format: functional, cell-based; details: OCI-LY19, 72 h
HCC70 = assay: Cytotoxicity against human HCC70 cells measured after 3 days; format: functional, cell-based; details: HCC70, 72 h
NCI-H1734 = assay: Cytotoxicity against human NCI-H1734 cells measured after 3 days; format: functional, cell-based; details: NCI-H1734, 72 h
[11] = Cytotoxicity against human HCC3153 cells measured after 8 days; format: functional, cell-based; details: HCC3153, 192 h
KMS-12-BM = assay: Cytotoxicity against human KMS-12-BM cells measured after 3 days; format: functional, cell-based; details: 72 h
AMO1 = assay: Cytotoxicity against human AMO1 cells measured after 3 days; format: functional, cell-based; details: AMO1, 72 h
OVCAR-3 = assay: Cytotoxicity against human OVCAR-3 cells measured after 3 days; format: functional, cell-based; details: OVCAR-3, 72 h
HCC1187 = assay: Cytotoxicity against human HCC1187 cells measured after 3 days; format: functional, cell-based; details: HCC1187, 72 h
ES-2 = assay: Cytotoxicity against human ES2 cells measured after 3 days; format: functional, cell-based; details: ES-2, 72 h
[12] = Cytotoxicity against human HCC89 cells measured after 3 days; format: functional, cell-based; details: HCC89, 72 h
SKM-1 = assay: Cytotoxicity against human SKM-1 cells measured after 3 days; format: functional, cell-based; details: SKM-1, 72 h
DOHH-2 = assay: Cytotoxicity against human DOHH-2 cells measured after 3 days; format: functional, cell-based; details: DOHH-2, 72 h
HEL = assay: Cytotoxicity against human HEL cells measured after 3 days; format: functional, cell-based; details: 72 h
CWR22R = assay: Cytotoxicity against human 22Rv1 cells after 8 days; format: functional, cell-based; details: 22Rv1, 192 h
HLE = assay: Cytotoxicity against human HLE cells measured after 3 days; format: functional, cell-based; details: 72 h
786-0 = assay: Cytotoxicity against human 786-0 cells measured after 3 days; format: functional, cell-based; details: 786-0, 72 h
[13] = Cytotoxicity against human EFM-192A cells measured after 3 days; format: functional, cell-based; details: 72 h
SU-DHL-5 = assay: Cytotoxicity against human SU-DHL-5 cells measured after 3 days; format: functional, cell-based; details: SU-DHL-5, 72 h
SK-MES-1 = assay: Cytotoxicity against human SK-MES-1 cells measured after 3 days; format: functional, cell-based; details: SK-MES-1, 72 h
L-363 = assay: Cytotoxicity against human L-363 cells measured after 3 days; format: functional, cell-based; details: L-363, 72 h
[14] = Cytotoxicity against human COV413B cells measured after 3 days; format: functional, cell-based; details: 72 h
MX1 = assay: Cytotoxicity against human MX1 cells measured after 3 days; format: functional, cell-based; details: MX1, 72 h
MOLM-13 = assay: Cytotoxicity against human MOLM-13 cells measured after 3 days; format: functional, cell-based; details: MOLM-13, 72 h
EFM-19 = assay: Cytotoxicity against human EFM-19 cells measured after 3 days; format: functional, cell-based; details: EFM-19, 72 h
[15] = Cytotoxicity against human SUM52PE cells measured after 3 days; format: functional, cell-based; details: 72 h
NCI-H1793 = assay: Cytotoxicity against human NCI-H1793 cells measured after 8 days; format: functional, cell-based; details: NCI-H1793, 192 h

In the case of `C/C=C/Cn1cc(-c2ccc(C(C)(C)O)cc2OC)c2cc[nH]c2c1=O`, the IC50 (Toledo) is reported as 20 µM, the IC50 (REH) is reported as 20 µM and the Activity (PC-9) is reported as “Active”. For the same compound, the Activity (HPAC) was “inactive”, the Activity (MCF7) was “inactive” and the IC50 (HL-60) was 13.6 µM. The IC50 (Pfeiffer) was 6.95 µM and the IC50 (GABA-B receptor) was 4 µM.

`C/C=C/Cn1cc(-c2cc(OC)c(C(=O)N3CCOCC3)cc2OC)c2cc(C)[nH]c2c1=O` gave an IC50 (PLC-PRF-5) of 5 µM, an IC50 (OCI-AML-3) of 5 µM and an IC50 [1] of 5 µM. For the same compound, the IC50 [2] was 5 µM, the IC50 (EFO-27) was 5 µM and the IC50 (CA46) was 5 µM. The IC50 (DOV13) was 5 µM, the IC50 [3] was 5 µM and the IC50 (SU-DHL-6) was 5 µM. For the same compound, the IC50 (Ramos) was 5 µM, the IC50 (BT-20) was 5 µM and the IC50 (CAL-85-1) was 5 µM. It also gave an IC50 (SNU-423) of 5 µM, an IC50 (SU-DHL-16) of 5 µM and an IC50 [4] of 5 µM. The IC50 (HCC2935) was 2 µM, the IC50 [5] was 5 µM and the IC50 [6] was 5 µM. It also gave an IC50 [7] of 5 µM, an IC50 [8] of 5 µM and an IC50 [9] of 5 µM. The IC50 [10] was 5 µM, the IC50 (Hep 3B2) was 5 µM and the IC50 (KARPAS-422) was 5 µM. The IC50 (OCI-LY19) was 5 µM, the IC50 (HCC70) was 5 µM and the IC50 (NCI-H1734) was 5 µM. The IC50 [11] was 2 µM, the IC50 (KMS-12-BM) was 5 µM and the IC50 (AMO1) was 5 µM. For the same compound, the IC50 (OVCAR-3) was 5 µM, the IC50 (HCC1187) was 5 µM and the IC50 (ES-2) was 5 µM. It also gave an IC50 [12] of 5 µM, an IC50 (SKM-1) of 5 µM and an IC50 (DOHH-2) of 5 µM. For the same compound, the IC50 (HEL) was 5 µM, the IC50 (CWR22R) was 2 µM and the IC50 (HLE) was 5 µM. The IC50 (786-0) was 5 µM, the IC50 [13] was 5 µM and the IC50 (SU-DHL-5) was 5 µM. For the same compound, the IC50 (SK-MES-1) was 5 µM, the IC50 (L-363) was 5 µM and the IC50 [14] was 5 µM. The IC50 (MX1) was 5 µM, the IC50 (MOLM-13) was 5 µM and the IC50 (EFM-19) was 5 µM. The IC50 [15] was 5 µM and the IC50 (NCI-H1793) was 2 µM.

Source: ChEMBL document CHEMBL5260810, “Inhibition of bromodomain-containing protein 9 for the prevention of epigenetically-defined drug resistance” (Bioorg Med Chem Lett, 2017)
